Like-named read-outs stand apart in the source and are kept apart here.
Assays:
[1] = In vivo PK DDI study of TOF with or without RTV in rats (plasma LC-MS/MS, NCA); parameters: species or system Sprague–Dawley rats; settings: for concentration at 12 h: oral, rat plasma, 12 h after TOF 10 mg/kg oral
Protocol: The rats were randomly divided into three groups (eight rats per group) after 1 week of acclimatization. Each rat was pretreated with RTV by oral gavage at different doses for four consecutive days (from Day 1 to Day 4) to ensure steady-state CYP3A inhibition, based on studies indicating rapid onset of inhibition. Group 1 (control group) received the vehicle (normal saline). Groups 2 and 3 served as test groups and received 10 and 20 mg/kg RTV once daily (QD), respectively. […] The collected samples were centrifuged at 10,000 rpm for 10 min at 4 °C to separate the plasma and stored at −80 °C until analysis.
Plasma samples were prepared by protein precipitation with acetonitrile containing domperidone as an internal standard (100 ng/mL). After vortex mixing and centrifugation at 15,000× g for 10 min at 4 °C, the supernatant was analyzed by LC-MS/MS with an injection volume of 5 μL. Chromatographic separation was achieved on a C18 reversed-phase column with a mobile phase of 0.1% formic acid in water and acetonitrile at a flow rate of 0.4 mL/min. Mass spectrometry was performed in positive ion mode with an electrospray ionization probe. […] Detailed instrument settings, sample preparation, calibration, and validation data are provided in Supplementary Material (Tables S1 and S2; Figure S1).

[2] = healthy human subjects, cited from earlier work
[3] = humans; cited from earlier work
[4] = cited from earlier work
[5] = rats; cited from earlier work
[6] = cited from earlier work; remark: listed apart in the source
CYP3A4 = settings: in vitro study; cited from earlier work
[7] = healthy subjects, co-administration of RTV 400 mg twice daily; cited from earlier work
[8] = Sprague-Dawley, rat, plasma, po, 10 mg/kg, rats, TOF 10 mg/kg oral, Control (TOF only, vehicle), median [interquartile range]
[9] = rats, TOF 10 mg/kg oral, Control (TOF only, vehicle), median [interquartile range]
[10] = rats, TOF 10 mg/kg oral, RTV 10 mg/kg, median [interquartile range]

## C[C@@H]1CCN(C(=O)CC#N)C[C@@H]1N(C)c1ncnc2[nH]ccc12 [TOF, Tofacitinib]
[1]; Sprague-Dawley, rat, plasma, RTV 10 mg/kg, read-out: Lowest plasma concentration at 12 h
  concentration at 12 h: 1.5 ng/mL
[1]; Sprague-Dawley, rat, plasma, RTV 10 mg/kg, read-out: Mean plasma concentration at 12 h
  concentration at 12 h: 21.9 ng/mL
[1]; Sprague-Dawley, rat, plasma, RTV 20 mg/kg, read-out: Lowest plasma concentration at 12 h
  concentration at 12 h: 2.6 ng/mL
[1]; Sprague-Dawley, rat, plasma, RTV 20 mg/kg, read-out: Mean plasma concentration at 12 h
  concentration at 12 h: 12.1 ng/mL
[1]; [8]
  AUC(0-inf): 2720 ng·h/mL
  half-life: 1.21 h
[1]; Sprague-Dawley, rat, plasma, po, 10 mg/kg, rats, TOF 10 mg/kg oral, RTV 10 mg/kg, median [interquartile range]
  half-life: 1 h
[1]; Sprague-Dawley, rat, plasma, po, 10 mg/kg, rats, TOF 10 mg/kg oral, RTV 10 mg/kg, median [interquartile range], read-out: Cmax
  Cmax: 2250 ng/mL
[1]; Sprague-Dawley, rat, plasma, po, 10 mg/kg, rats, TOF 10 mg/kg oral, RTV 20 mg/kg pretreatment and coadministration, median [interquartile range]
  AUC(0-inf): 16000 ng·h/mL
[1]; Sprague-Dawley, rat, plasma, po, 10 mg/kg, rats, TOF 10 mg/kg oral, RTV 20 mg/kg, median [interquartile range]
  half-life: 0.87 h
[1]; Sprague-Dawley, rat, plasma, po, 10 mg/kg, rats, TOF 10 mg/kg oral, RTV 20 mg/kg, median [interquartile range], read-out: Cmax
  Cmax: 3900 ng/mL
[1]; Sprague-Dawley, rat, plasma, po, 10 mg/kg, read-out: Tmax
  Tmax: 1 h
[1]; [9]
  CL: 3.57 [2.65–4.49] L/h/kg
  Cmax: 1362 [1263–1410] ng/mL
  Tmax: 0.25 [0.25–0.5] h
[1]; [10]
  CL: 1.65 [1.19–2.11] L/h/kg
  Tmax: 0.5 [0.44–1.0] h
[1]; rats, TOF 10 mg/kg oral, RTV 20 mg/kg, median [interquartile range]
  CL: 0.66 [0.60- 0.73] L/h/kg
[1]; rats, TOF 10 mg/kg oral, RTV 10 and 20 mg/kg vs Control, p = 0.08
  Change of half-life (t1/2) with RTV: remained unchanged
[2]; co-administration of fluconazole
  Increase in AUC of TOF: 79%
[2]; co-administration of ketoconazole
  Increase in AUC of TOF: 103%
[3]
  Hepatic clearance as share of total clearance: 70%
  Renal clearance as share of total clearance: 30%
[4]; rats pretreated with fluconazole (inhibitor of CYP2C11)
  Increase in AUC of TOF: 39%
[4]; rats pretreated with ketoconazole (inhibitor of CYP3A1/2)
  Increase in AUC of TOF: 46%
[4]; rats, with voriconazole (inhibits CYP3A1/2 and CYP2C11)
  Increase in AUC of TOF: 166%
[5]
  Bioavailability (BA): 29.1%

## COc1ccc2c3c1O[C@H]1C(=O)CC[C@@]4(O)[C@@H](C2)N(C)CC[C@]314 [oxycodone]
[6]; in the presence of RTV
  Change in exposure in the presence of RTV: tripled

## CC(=O)N1CCN(c2ccc(OCC3COC(Cn4ccnc4)(c4ccc(Cl)cc4Cl)O3)cc2)CC1 (stereo not shown) [ketoconazole]
CYP3A4
  Inhibition of the overall metabolism of TOF: over 70%

## C[C@@H](c1ncncc1F)[C@](O)(Cn1cncn1)c1ccc(F)cc1F [voriconazole]
[7]
  Decrease in steady-state AUC: 82%

## C=CC[C@@H]1/C=C(\C)C[C@H](C)C[C@H](OC)[C@H]2O[C@@](O)(C(=O)C(=O)N3CCCC[C@H]3C(=O)O[C@H](/C(C)=C/[C@@H]3CC[C@@H](O)[C@H](OC)C3)[C@H](C)[C@@H](O)CC1=O)[C@H](C)C[C@@H]2OC [Tacrolimus]
[6]; patients undergoing long-term tacrolimus treatment
  Change in exposure on co-administration with RTV: increase to toxic levels within 3 days

— article PMC12567268 (Pharmaceuticals, 2025)
